According to BindingDB's records for doi:10.1016/s0960-894x(01)00229-3 (Peking University, 2001):

Test: Inhibitory activity against secretory Phospholipase A2 (s-PLA2) of Naja naja

For `COc1ccc2nc(Oc3ccccc3)cc(CC(N)=O)c2c1` [2-(6-Methoxy-2-phenoxy-quinolin-4-yl)-acetamide], the IC50 was 1 µM.
Work on `COc1ccc2nc(Oc3ccccc3)cc(C(N)=O)c2c1` [6-Methoxy-2-phenoxy-quinoline-4-carboxylic acid amide] yielded an IC50 of 10 µM.
